Source: patent US8722649B2, “Alpha-chloro and alpha-bromo phosphonate analogs of lysophosphatidic acid and methods of making and using thereof” (University of Utah Research Foundation, priority 2007, dated 2014)
Read-outs that look alike come from different tables or passages of the source.

Columns and labels:
human LPA1 = target: T1, human LPA1 (Homo sapiens, UniProt Q92633); experiment: Ca2+ mobilization assay, LPA1; format: cell-based; details: for EC50: RH7777 cells stably expressing LPA1, agonist mode; for LPA1 (Emax): Emax = (maximal efficacy of compound/maximal efficacy of LPA 18:1) × 100; for LPA1 ligand type: agonist/antagonist in words
T1 construct: expressed in transfected cells
T1 sequence (Q92633 whole entry): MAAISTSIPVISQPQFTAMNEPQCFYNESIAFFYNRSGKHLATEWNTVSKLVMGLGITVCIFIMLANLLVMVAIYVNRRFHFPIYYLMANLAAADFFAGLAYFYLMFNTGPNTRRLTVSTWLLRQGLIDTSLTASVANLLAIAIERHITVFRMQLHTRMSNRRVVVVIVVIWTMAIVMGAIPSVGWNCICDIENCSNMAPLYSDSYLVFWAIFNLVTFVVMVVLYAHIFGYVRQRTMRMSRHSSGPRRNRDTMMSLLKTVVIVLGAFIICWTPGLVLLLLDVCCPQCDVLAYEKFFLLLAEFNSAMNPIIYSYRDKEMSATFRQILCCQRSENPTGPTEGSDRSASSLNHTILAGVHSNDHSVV
Description: (§1) Receptor activation using Ca^2+ mobilization assay for diastereomers of 1 (also represented as 19b). The rat hepatoma (RH7777) cell lines individually expressing either LPA1, LPA2, LPA3 or LPA5 receptors and Chinese hamster ovary (CHO) cell line were analyzed to examine agonism and antagonism. […] CHO cells stably expressing either vector or LPA4 were kindly gifted from Dr. Shimizu (University of Tokyo, Tokyo, Japan).
(§2) Stable transformants of LPA1/2/3 receptors. RH7777 cells stably expressing each receptor were plated onto poly-L-lysine (PLL) (0.1 mg/mL)-coated black-wall clear-bottom 96-well plates (Corning Incorporated Life Sciences, Acton, Mass.) at a density of 5×10^4 cells/well and cultured overnight. The following day, the culture medium was replaced with modified Krebs buffer (120 mM NaCl, 5 mM KCl, 0.62 mM MgSO4, 1.8 mM CaCl2, 10 mM HEPES, 6 mM glucose, pH 7.4), and the cells were serum starved for 6 h. Subsequently, cells were loaded with Fura-2 AM (Invitrogen, Carlsbad, Calif.) for 35 min in modified Krebs buffer containing 2% (v/v) pluronic acid.
(§3) After incubating the cells with Fura-2 AM, the cells were rinsed with Krebs buffer and changes in the intracellular Ca^2+ concentration were monitored by determining the ratio of emitted light intensities at 520 nm in response to excitation at 340 and 380 nm using FLEXstation II (Molecular Devices, Sunnyvale, Calif.). Each well was monitored for 80-120 sec. For testing agonist activity of the compounds, the test compounds were added automatically after 15 sec of baseline measurement. To determine antagonist properties, varying concentrations of the compounds were mixed with a constant concentration of LPA and responses were monitored. Each test was performed in quadruplicate. EC50, IC50, and Ki values were calculated by fitting a sigmoid function to data points with the nonlinear curve-fitting feature of KaleidaGraph (Synergy Software, Essex Junction, Vt.).
Receptor activation using Ca^2+ mobilization assay. The assay for mobilization of intracellular Ca^2+ was performed as described. Briefly, rat hepatoma RH7777 cells stably expressing human LPA1, LPA2, or LPA3, and CHO cells stably expressing LPA4, were loaded with Fura-2 AM (Molecular Probes). Using a FLEXStation (Molecular Devices, Sunnyvale, Calif.), changes in intracellular Ca^2+ concentration were monitored. Ligand-induced changes in fluorescence were monitored for 80-120 seconds. Ca^2+ transients were quantified automatically by calculating the difference between maximum and baseline ratio values for each sample. To determine antagonist properties, different concentrations of each analogue were mixed with either palmitoyl (16:0) or oleoyl (18:1) LPA (200 nM for LPA1 and LPA3, 10 nM for LPA2, and 400 nM for LPA4) (Avanti Polar Lipids, Inc., […], Ala.) and responses were recorded. Each test was performed in quadruplicate. EC50, IC50, and Ki values were calculated as described. The ligand properties of the compounds were evaluated using Ca^2+ mobilization assay for assessing the activation/inhibition of LPA1, LPA2, and LPA3 expressed in RH7777 cells and LPA4 expressed in CHO cells. Table l illustrates calcium responses elicited through the activation of human LPA1, LPA2, LPA3 and LPA4 receptors. These cell lines have been used extensively for the characterization of LPA GPCR ligands because RH7777 cells are intrinsically unresponsive to LPA and CHO cells show minimal endogenous responses to LPA unless transfected with LPA4.

human LPA2 = target: T2, human LPA2 (Homo sapiens, UniProt Q9HBW0); experiment: Ca2+ mobilization assay, LPA2; format: cell-based; details: for EC50: RH7777 cells stably expressing LPA2, agonist mode; for LPA2 (Emax): Emax = (maximal efficacy of compound/maximal efficacy of LPA 18:1) × 100; for LPA2 ligand type: agonist/antagonist in words
T2 construct: expressed in transfected cells
T2 sequence (Q9HBW0 whole entry): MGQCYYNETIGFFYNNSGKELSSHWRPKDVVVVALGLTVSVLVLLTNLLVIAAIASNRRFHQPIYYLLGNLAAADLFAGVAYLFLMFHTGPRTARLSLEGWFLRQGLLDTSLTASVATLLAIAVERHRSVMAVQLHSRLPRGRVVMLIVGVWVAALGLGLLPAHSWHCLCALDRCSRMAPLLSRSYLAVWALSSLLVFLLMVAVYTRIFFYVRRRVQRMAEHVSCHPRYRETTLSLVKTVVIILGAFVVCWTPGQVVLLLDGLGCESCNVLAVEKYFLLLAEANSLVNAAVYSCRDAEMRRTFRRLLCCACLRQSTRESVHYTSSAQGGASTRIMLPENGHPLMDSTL
Description: as §1, §2
as §3, with “To determine antagonist properties, varying concentrations of the compounds were mixed with a constant concentration of LPA and responses were monitored.” left out
Receptor activation using Ca^2+ mobilization assay. The assay for mobilization of intracellular Ca^2+ was performed as described. Briefly, rat hepatoma RH7777 cells stably expressing human LPA1, LPA2, or LPA3, and CHO cells stably expressing LPA4, were loaded with Fura-2 AM (Molecular Probes). Using a FLEXStation (Molecular Devices, Sunnyvale, Calif.), changes in intracellular Ca^2+ concentration were monitored. Ligand-induced changes in fluorescence were monitored for 80-120 seconds. Ca^2+ transients were quantified automatically by calculating the difference between maximum and baseline ratio values for each sample. […] Each test was performed in quadruplicate. EC50, IC50, and Ki values were calculated as described. The ligand properties of the compounds were evaluated using Ca^2+ mobilization assay for assessing the activation/inhibition of LPA1, LPA2, and LPA3 expressed in RH7777 cells and LPA4 expressed in CHO cells.

recombinant ATX-HA = target: T3, recombinant ATX-HA (Homo sapiens, UniProt Q13822); experiment: Autotaxin assay (FS-3 hydrolysis); format: biochemical; details: for Inhibition (%) of autotaxin (ATX) phosphodiesterase activity / inhibition at 10 µM: FS-3 substrate
T3 construct: HA
Description: Autotaxin Assay. This assay utilizes FS-3 (Echelon Biosciences, Inc. Salt Lake City, Utah) as substrate and recombinant ATX-HA. For analysis, 50 μl of ATX-HA (0.25 μg) in assay buffer (Tris 50 mM, NaCl 140 mM, KCl 5mM, CaCl2 1 mM, MgCl2 1 mM, pH 8.0) was mixed with 25 μl of FS-3 (1 μM final concentration in assay buffer) and 25 μl of test compound dissolved in assay buffer containing 1:1.5 bovine serum albumin in 96-well plate. FS-3 fluorescence was monitored using FLEXstation fluorescence plate reader at a time zero and after 2 hours of incubation at 37° C. at excitation and emission wavelengths of 485 nm and 538 nm, respectively. Data was normalized to the corresponding vehicle control and the mean±standard deviation of triplicate wells were expressed as percent ATX inhibition. IC50, and Ki values were calculated as described.

[1] = antagonist mode vs 200 nM LPA, PA = partial antagonist, read-out: LPA1 IC50
[2] = diastereomer study, RH7777 cells, read-out: LPA1 IC50 (Table 2)
[3] = diastereomer study, RH7777 cells, read-out: LPA1 Ki (Table 2)
[4] = antagonist mode vs 10 nM LPA, PA = partial antagonist, read-out: LPA2 IC50
[5] = antagonist mode vs 10 nM LPA, read-out: LPA2 (Ki)
[6] = diastereomer study, RH7777 cells, read-out: LPA2 IC50 (Table 2)
[7] = diastereomer study, RH7777 cells, read-out: LPA2 Ki (Table 2)
[8] = 10 μM, read-out: ATX Inhibition (Table 2)
[9] = 10.0 μM, preliminary single-dose screen

| Compound | EC50 (human LPA1) [nM] | IC50 (human LPA1; [1]) [nM] | Ki (human LPA1; antagonist mode vs 200 nM LPA, read-out: LPA1 (Ki)) [nM] | IC50 (human LPA1; [2]) [nM] | Ki (human LPA1; [3]) [nM] | EC50 (human LPA2) [nM] | IC50 (human LPA2; [4]) [nM] | Ki (human LPA2; [5]) [nM] | IC50 (human LPA2; [6]) [nM] | Ki (human LPA2; [7]) [nM] | Inhibition (%) of autotaxin (ATX) phosphodiesterase activity (recombinant ATX-HA; 10.0 μM, preliminary single-dose screen, listed as 19b) [%] | inhibition at 10 µM (recombinant ATX-HA; 10.0 μM, preliminary single-dose screen, read-out: Inhibition (%) of autotaxin (ATX) phosphodiesterase activity) [%] | inhibition at 10 µM (recombinant ATX-HA; [8]) [%] | LPA1 (Emax) (human LPA1) | LPA2 (Emax) (human LPA2) | Inhibition (%) of autotaxin (ATX) phosphodiesterase activity (recombinant ATX-HA; [9]) [%] | LPA1 ligand type (human LPA1) | LPA2 ligand type (human LPA2) | IC50 (recombinant ATX-HA; 0.3 to 10 μM, FS-3 hydrolysis, read-out: ATX apparent IC50) [nM] |
| --- | --- | --- | --- | --- | --- | --- | --- | --- | --- | --- | --- | --- | --- | --- | --- | --- | --- | --- | --- |
| CCCCCCCCCCCCCCCC(=O)OC[C@@H](O)CC(Br)P(=O)(O)O (mixture of isomers) [Compound 1, [1-Bromo-3(S)-hydroxyl-4-(palmitoyloxy)butyl]-phosphonate] | > 30000 | 1500 ± 559 | 751 | 4520 | 805 | > 30000 | 1420 ± 83 | 304 | 468 | 245 | 93.7 ± 2.0 | > 90 | 102 ± 2.7 |  |  |  |  |  |  |
| CCCCCCCCC=CCCCCCCCC(=O)OCC(O)CC(O)P(=O)([O-])O.[Na+] (mixture of isomers) [Compound 22a, reference compound] | > 9250 | > 30000 |  |  |  | > 2160 |  |  |  |  |  |  |  | (39.1 ± 3.15) | (71.9 ± 6.0) | 74.7 |  |  |  |
| CCCCCCCCCCCCCCCC(=O)OCC(O)CC(O)P(=O)([O-])O.[Na+] (mixture of isomers) [Compound 22b, reference compound] | > 30000 | > 30000 |  |  |  | > 30000 |  |  |  |  |  |  |  |  |  | 54.1 |  |  |  |
| CCCCCCCCCCCCCCCC(=O)OC[C@@H](O)C[C@@H](Br)P(=O)(O)O [Compound 1a] |  |  |  | 648 | 273 |  |  |  | 288 | 250 |  |  | 98.1 ± 2.3 |  |  |  | Antagonist | Antagonist |  |
| CCCCCCCCCCCCCCCC(=O)OC[C@@H](O)C[C@H](Br)P(=O)(O)O [Compound 1b] |  |  |  | 2080 | 752 |  |  |  | 275 | 241 |  |  | 99.4 ± 2.7 |  |  |  | Antagonist | Antagonist | ~300 |
| CCCCCCCC/C=C\CCCCCCCC(=O)OCC(O)CCP(=O)(O)O (centres unmarked) [Compound 20a, reference compound] | > 2520 | > 30000 |  |  |  | > 281 |  |  |  |  |  |  |  | (52.9 ± 11.3) | (94.7 ± 4.3) | 99.8 |  |  |  |
| CCCCCCCCCCCCCCCC(=O)OC[C@@H](O)CCP(=O)([O-])O.[Na+] [Compound 20b, reference compound] | > 30000 | > 30000 |  |  |  | > 30000 | 2590 ± 875 | 1300 |  |  |  |  |  |  |  | 60.6 ± 4.6 |  |  |  |
| CCCCCCCCCCCCCCCC(=O)OCC(O)COP(=O)(O)O (centres unmarked) [LPA (16:0), reference compound] | 90.8 ± 20.9 | > 30000 |  |  |  | 55.1 ± 4.3 |  |  |  |  |  |  |  | (88.7 ± 3.6) | (100.3 ± 1.9) | 38.1 ± 3.4 |  |  |  |
